Consider six compounds from patent publication EP0113632A1, “Process for the preparation of halogen methylates of levallorphane, and peripheral narcotic antagonist pharmaceutical compositions containing them” (SANOFI S.A., priority 1982, dated 1984).

Test [1] concerns effet analgésique de la morphine. The experiment in a line: Hot plate test: antagonism of the analgesic effect of morphine. Format: in vivo, souris. Conditions: for Antagonisme à l'effet analgésique DI50a / ED50: female mice, s.c. 5 min before morphine 24 mg/kg s.c., hot plate 30 min after morphine, dose inhibiting the effect by 50 %, extrapolated from log dose-response regression, limits in parentheses; for ED50: Mus musculus, sc, read-out: Antagonisme à l'effet analgésique DI50a; for DI50a/DI50c: ratio of DI50 for the analgesic effect (hot plate) to DI50 for the constipating effect (charcoal meal). As for the experimental part:
L'antagonisme à l'effet analgésique de la morphine a été évalué selon le test classique pour l'analgésie de la plaque chauffante (Eddy et Leibach, J. Pharmacol. 1953, 107, 385, modifié par Janseen et Jagenau, J. Pharm. Pharmacol. 1957, 9, 381-400). Ce test est très sensible pour l'action des antogonistes des opiacés.
On utilise des souris femelles de 18 à 22 g. Les substances sont administrées en solution physiologique (20 ml/kg) par voie sous-cutanée 5 minutes avant l'administration de la morphine (24 mg/kg s.c.). Trente minutes après la morphine, on place les animaux sur la plaque chauffante et l'on évalue le temps de réaction des animaux qui présentent la réaction nocicéptive (léchage des pattes).
(§1) L'activité des substances à activité antagoniste périphérique des narcotiques est évaluée sur la base de l'inhibition pour cent de l'effet constipant et de l'effet analgésique de la morphine. La dose qui inhibe de 50 % lesdits effets (DI50c pour l'effet constipant et […] pour l'effet analgésique) a été extrapolée de la droite de régression log dose-réponse en appliquant l'analyse de la variance par régression linéaire.

Test [2] relates to effet constipant de la morphine. Description: Charcoal meal intestinal transit test (Green, modified): antagonism of the constipating effect of morphine. Format: in vivo, souris. Conditions: for Antagonisme à l'effet constipant DI50c / ED50: female mice fasted 20 h, s.c. 5 min before morphine 12 mg/kg s.c. and charcoal meal, sacrifice after 30 min, dose inhibiting the effect by 50 %, extrapolated from log dose-response regression, limits in parentheses; for ED50: Mus musculus, sc, read-out: Antagonisme à l'effet constipant DI50c. Here is the method:
L'antagonisme à l'effet constipant de la morphine des halomèthylates de lévallorphan de la présente invention a été évalué selon le test décrit par A.F. Green (Pr. J. Pharmacol. Chemother. 1959, 14, 26), opportunément modifié.
On utilise trois groupes de souris femelles de 20 g environ à jeun depuis 20 heures. A un groupe témoin, on administre par voie orale un repas constitué par 0,2 ml d'un mélange de gomme arabique 5 % (6 ml), farine (2 g) et charbon (1 g). Au deuxième groupe on administre par la voie sous-cutanée 12 mg/kg de morphine et, immédiatement après, le repas au charbon ci-dessus. Le troisième groupe est traité par l'antagoniste sous examen par voie sous-cutanée, puis, après 5 minutes, par 12 mg/kg de morphine par voie sous-cutanée et, tout de suite après, par le repas au charbon. Après trente minutes, les animaux sont sacrifiés pour l'évaluation de la portion intestinale parcourue par le charbon, exprimée en pour cent de la longueur totale de l'intestin grèle.
as §1

Turning to `C=CC[N+]1(C)CCC23c4c5ccc(O)c4OC2C(=O)CCC3(O)C1C5.COS(=O)(=O)[O-]` (stereo not drawn) [sulfométhylate de naloxone], the “Antagonisme à l'effet analgésique DI50a” value in test [1] is reported as 1,6 mg/kg (0,7 - 3,6). The “Antagonisme à l'effet constipant DI50c” value in test [2] is listed as 5,8 mg/kg (2,9 - 11,5).
For `C=CC[N+]1(CC=C)CC[C@]23CCCC[C@H]2[C@H]1Cc1ccc(O)cc13` [bromoallylate de lévallorphan], in test [1], the ED50 is 15.2 mg/kg and the DI50a/DI50c is reported as 0,97. Further, the ED50 in test [2] is 15.6 mg/kg.
Take `C=CC[N+]1(C)CC[C@]23CCCC[C@H]2[C@H]1Cc1ccc(O)cc13` (single isomer, unassigned) [iodoallylate de lévorphanol]: in test [1], the “Antagonisme à l'effet analgésique DI50a” value is listed as 50 mg/kg. The “activité antagoniste, périphérique ou centrale” value in test [2] (conclusion in words, covers both the constipation and the analgesia test) is “inactif”. For the same compound, the “Antagonisme à l'effet constipant DI50c” value in test [2] is on record as 50 mg/kg.
`C=CC[N+]1(C)CC[C@]23CCCC[C@H]2[C@H]1Cc1ccc(O)cc13` (single isomer, unassigned) [iodométhylate de lévallorphan]: in test [1], the ED50 is 50 mg/kg and the DI50a/DI50c is listed as 6,7. The “Antagonisme à l'effet constipant DI50c” value in test [2] is 7,6 mg/kg (4,5 - 13,0). The “activité par rapport à celle du bromoallylate de lévallorphan” value in test [2] (test of antagonism of the constipating effect of morphine, fold higher activity) was over 2 fois.
Take `C=CC[N+]1(C)CCC23c4c5ccc(O)c4OC2C(O)C=CC3C1C5` (single isomer, unassigned) [bromométhylate de nalorphine]: in test [1], the ED50 was 8.6 mg/kg and the DI50a/DI50c is 2,32. Besides, the ED50 in test [2] is 3.7 mg/kg.
For `C=CCN1CC[C@]23c4c5ccc(O)c4O[C@H]2C(=O)CC[C@@]3(O)[C@H]1C5` [naloxone, N-allyl-noroxymorphone], in that order: 0.06 mg/kg, 0,08 and 0.8 mg/kg.
